Tests used:
NOX1 = biological target: T1, NOX1 (Homo sapiens, UniProt Q9Y5S8); assay: NOX1 HT29 cell-based assay (luminol/HRP luminescence); details: HT29 cells, DMSO = 0%, GKT137831 = 100%; for inhibition at 0.1 µM / inhibition at 1 µM: HT-29
T1 construct: endogenous in cells; host or cells: HT29
T1 sequence (Q9Y5S8 1-564): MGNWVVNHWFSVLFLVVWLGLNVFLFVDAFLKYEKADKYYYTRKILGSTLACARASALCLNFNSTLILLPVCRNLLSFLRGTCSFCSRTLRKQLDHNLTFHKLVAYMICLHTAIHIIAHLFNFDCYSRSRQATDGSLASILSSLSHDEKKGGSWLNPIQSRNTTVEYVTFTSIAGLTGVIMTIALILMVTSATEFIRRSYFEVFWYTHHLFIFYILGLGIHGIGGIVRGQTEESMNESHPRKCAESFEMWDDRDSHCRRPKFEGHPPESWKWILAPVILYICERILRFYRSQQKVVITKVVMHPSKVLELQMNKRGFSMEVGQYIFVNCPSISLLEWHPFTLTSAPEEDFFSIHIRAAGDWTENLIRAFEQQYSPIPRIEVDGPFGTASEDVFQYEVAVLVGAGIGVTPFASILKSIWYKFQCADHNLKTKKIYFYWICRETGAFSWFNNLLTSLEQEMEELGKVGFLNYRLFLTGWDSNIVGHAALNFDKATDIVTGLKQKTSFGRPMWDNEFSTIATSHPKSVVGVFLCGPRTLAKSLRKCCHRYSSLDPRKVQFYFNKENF
T1 sequence (P13498 2-195 partner limits assumed): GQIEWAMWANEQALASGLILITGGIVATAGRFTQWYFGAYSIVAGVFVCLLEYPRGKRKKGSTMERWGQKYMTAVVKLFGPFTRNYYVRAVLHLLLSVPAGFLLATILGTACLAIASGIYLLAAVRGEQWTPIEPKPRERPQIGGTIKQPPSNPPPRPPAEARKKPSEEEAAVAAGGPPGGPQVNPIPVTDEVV
Method: NOX1 HT29 Cell-Based Assay:
HT29 cells were cultured in T75 flask (Corning) and when 70-80% confluence was reached, cells were trypsinized, harvested in HBSS and counted. 1-2×10^5 cells were dispensed into individual wells in 70 μl final volume (96-well plates, white Corning). Cells were treated for 30-60 mins at 37° C. with 10 μl of GKT137831, DMSO and test compounds from their respective assay plates. This will correspond to a final concentration of 100 nM, 1000 nM GKT137831 or test compounds, and 0.1% DMSO. 20 μL of a mixture containing 100 μM luminol plus 0.4 units of HRP (final concentration) was added. Luminescence was quantified using a SpectraMax i3 Multiplate reader (Molecular Devices, Sunnyvale, Calif., USA). As designed, compounds that inhibit NOX1 activity will reduce cellular ROS production, leading to reduced probe-ROS interactions and reduced well luminescence. Compounds were tested in duplicate at a concentration of 100 nM and 1000 nM. DMSO and GKT137831 wells were applied as negative and positive controls, and the activities measured were set to 0% and 100%, respectively.

NOX4 = biological target: T2, NOX4 (Homo sapiens, UniProt Q9NPH5); assay: NOX4 HEK293 overexpression cell-based assay (Amplex Red H2O2); details: HEK293 cells stably overexpressing NOX4, DMSO = 0, GKT137831 = 100; for inhibition at 1 µM: HEK293, 1000 nM; for inhibition at 0.1 µM: HEK293, 100 nM
T2 construct: expressed in transfected cells
T2 sequence (Q9NPH5 1-578): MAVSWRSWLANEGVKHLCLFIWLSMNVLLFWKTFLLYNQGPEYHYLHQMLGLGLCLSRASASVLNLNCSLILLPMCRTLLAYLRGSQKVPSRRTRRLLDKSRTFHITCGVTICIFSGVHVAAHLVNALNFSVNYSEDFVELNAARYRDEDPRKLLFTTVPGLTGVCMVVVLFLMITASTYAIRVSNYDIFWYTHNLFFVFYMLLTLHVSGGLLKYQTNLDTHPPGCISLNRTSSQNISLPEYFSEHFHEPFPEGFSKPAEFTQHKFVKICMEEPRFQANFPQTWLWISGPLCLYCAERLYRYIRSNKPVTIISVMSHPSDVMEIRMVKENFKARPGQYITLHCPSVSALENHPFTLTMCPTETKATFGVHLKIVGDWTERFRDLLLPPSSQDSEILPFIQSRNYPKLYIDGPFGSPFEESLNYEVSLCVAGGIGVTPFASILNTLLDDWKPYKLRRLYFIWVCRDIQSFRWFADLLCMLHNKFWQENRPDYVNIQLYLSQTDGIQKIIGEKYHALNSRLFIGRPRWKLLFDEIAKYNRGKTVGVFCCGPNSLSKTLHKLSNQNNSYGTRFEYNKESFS
T2 sequence (P13498 2-195 partner limits assumed): T1 sequence (P13498 2-195 partner limits assumed)
Method: Extracellular H2O2 measurement using Amplex™ Red Hydrogen Peroxide/Peroxidase Assay Kit (Catalog number: A22188; Invitrogen, Carlsbad, Calif., USA) was used to detect extracellular H2O2 release by HEK293 cells stably overexpressing NOX4. NOX4 clonal cells in log-phase growth were trypsinized, washed, and dispersed thoroughly. Following trypsinization, the cells (3×10^4) were resuspended in 100 μL of 1× Krebs-Ringer phosphate glucose (KRPG) buffer containing various concentrations of GKT137831 or test compounds and incubated at 37° C. for 30 min. Cells were mixed with 100 μL of Amplex Red reagent solution containing 50 μM Amplex Red and 0.1 units/mL of HRP in KRPG buffer; each assay condition was evaluated induplicate. The samples were incubated at 37° C. for 90 mins in the dark, and then centrifuged at 2,500 g for 5 mins. The supernatants were loaded to a 96 well plate, and then measured using a SpectraMax i3 Multiplate reader (Molecular Devices, Sunnyvale, Calif., USA) at 530 nm excitation and 590 nm emission respectively. DMSO and GKT137831 wells were applied as negative and positive controls, and the activities measured were set to 0 and 100, respectively.

NOX2 = biological target: T3, NOX2 (Homo sapiens, UniProt P04839); assay: NOX2 HL60 cell-based assay (PMA oxidative burst, L012 chemiluminescence); details: DMSO-differentiated HL-60 cells, PMA-stimulated; for inhibition at 1 µM: HL-60, 1000 nM; for inhibition at 0.1 µM: HL-60, 100 nM
T3 construct: HL-60 cells, rich in NOX2 expression; endogenous in cells; host or cells: DMSO-differentiated HL-60
T3 sequence (P04839 2-570 limits assumed): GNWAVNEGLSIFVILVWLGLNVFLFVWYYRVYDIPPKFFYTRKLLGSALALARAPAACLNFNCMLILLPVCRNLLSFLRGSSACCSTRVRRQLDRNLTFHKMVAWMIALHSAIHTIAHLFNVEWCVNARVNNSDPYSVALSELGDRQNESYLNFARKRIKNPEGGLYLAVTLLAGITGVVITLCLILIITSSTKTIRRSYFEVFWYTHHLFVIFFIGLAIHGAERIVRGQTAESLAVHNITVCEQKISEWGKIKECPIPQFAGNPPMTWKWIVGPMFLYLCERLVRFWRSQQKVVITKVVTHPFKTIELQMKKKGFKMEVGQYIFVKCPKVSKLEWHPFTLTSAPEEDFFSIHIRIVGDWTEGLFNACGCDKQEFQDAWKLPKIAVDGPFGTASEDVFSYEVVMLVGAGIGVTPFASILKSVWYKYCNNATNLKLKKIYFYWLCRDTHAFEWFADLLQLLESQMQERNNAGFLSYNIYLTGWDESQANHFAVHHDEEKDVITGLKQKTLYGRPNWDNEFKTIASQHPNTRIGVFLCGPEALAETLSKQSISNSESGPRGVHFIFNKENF
T3 sequence (P13498 2-195 partner limits assumed): T1 sequence (P13498 2-195 partner limits assumed)
Method: NOX2 HL60 Cell-Based Assay:
HL-60 cells, rich in NOX2 expression, was stimulated to undergo oxidative burst by phorbol myristate acetate (PMA). The ROS produced during this process was measured using the O2^−-specific chemiluminescent probe L012. L012 was added to DMSO-differentiated HL-60 cell suspensions to a final concentration of 100 μM. Then, 80 μL aliquots of cell suspension (2.5×10^5 cells) were transferred to individual wells of a 96-well plate. Test compounds were directly added to the wells at the specified concentrations. Following a 30-60 mins incubation at 37° C. in the dark, the oxidative burst was initiated by the addition of 10 ng/mL PMA, and the chemiluminescence signal was recorded every 5 min over a period of 60 mins in a SpectraMax i3 Multiplate reader (Molecular Devices, Sunnyvale, Calif., USA). • NOX4 HEK293 Overexpression Cell-Based Assay: […]

inhibition at 0.1 µM (NOX1; 100 nM) [%] | inhibition at 1 µM (NOX1; 1000 nM) [%] | inhibition at 1 µM (NOX4) [%] | inhibition at 1 µM (NOX2) [%] | inhibition at 0.1 µM (NOX4) [%] | inhibition at 0.1 µM (NOX2) [%] | SMILES | % Inhibition NOX4 (NOX4; 100 nM) | % Inhibition NOX2 (NOX2; 100 nM) | % Inhibition NOX1 (NOX1; 100 nM) | % Inhibition NOX1 (NOX1; 1000 nM) | % Inhibition NOX4 (NOX4; 1000 nM) | % Inhibition NOX2 (NOX2; 1000 nM) | % Inhibition NOX4 (NOX4; 1000 nM, 1 µM) | % Inhibition NOX2 (NOX2; 1000 nM, 1 µM)
≥ 80 | ≥ 80 | ≥ 80 | ≥ 80 | – | – | COc1ccc(-c2[nH]c3cc(OC)c(OC)cc3c(=O)c2O)c(OC)c1 [Compound 15] | C (the percent of inhibition of NOX by the compounds ranges from 2000 to 49%) | C (the percent of inhibition of NOX by the compounds ranges from 2000 to 49%) | – | – | – | – | – | –
≥ 80 | ≥ 80 | – | – | – | 50 to 79 | COc1cc2[nH]c(-c3ccccc3OC(F)(F)F)c(O)c(=O)c2cc1OC [Compound 20] | C (the percent of inhibition of NOX by the compounds ranges from 2000 to 49%) | – | – | – | – | – | B (the percent of inhibition of NOX by the compounds ranges from 50% o to 79% o) | A (the percent of inhibition of NOX by the compounds is larger than or equals to 80%)
≤ 19 | ≤ 19 | – | ≤ 19 | ≤ 19 | ≤ 19 | COc1cc2[nH]c(-c3ccccc3OC)c(N)c(=O)c2cc1OC [Compound 38] | – | – | – | – | C (the percent of inhibition of NOX by the compounds ranges from 2000 to 49%) | – | – | –

The remaining lines, values behind:

SMILES | inhibition at 0.1 µM (NOX1; 100 nM) [%] | inhibition at 1 µM (NOX1; 1000 nM) [%] | inhibition at 1 µM (NOX4) [%] | inhibition at 1 µM (NOX2) [%] | inhibition at 0.1 µM (NOX4) [%] | inhibition at 0.1 µM (NOX2) [%] | % Inhibition NOX4 (NOX4; 100 nM) | % Inhibition NOX2 (NOX2; 100 nM) | % Inhibition NOX1 (NOX1; 100 nM) | % Inhibition NOX1 (NOX1; 1000 nM) | % Inhibition NOX4 (NOX4; 1000 nM) | % Inhibition NOX2 (NOX2; 1000 nM) | % Inhibition NOX4 (NOX4; 1000 nM, 1 µM) | % Inhibition NOX2 (NOX2; 1000 nM, 1 µM)
COc1cc2[nH]c(C(C)(C)C)c(O)c(=O)c2cc1OC [Compound 14] | ≤ 19 | ≥ 80 | ≤ 19 | ≤ 19 | ≤ 19 | ≤ 19 | – | – | – | – | – | – | – | –
COc1cc2[nH]c(-c3ccccc3OC(F)(F)F)c(O)c(=O)c2cc1OC.Cl [Compound 52] | – | – | – | – | – | – | C (the percent of inhibition of NOX by the compounds ranges from 2000 to 49%) | C (the percent of inhibition of NOX by the compounds ranges from 2000 to 49%) | A (the percent of inhibition of NOX by the compounds is larger than or equals to 80%) | A (the percent of inhibition of NOX by the compounds is larger than or equals to 80%) | B (the percent of inhibition of NOX by the compounds ranges from 50% o to 79% o) | B (the percent of inhibition of NOX by the compounds ranges from 50% o to 79% o) | – | –
COc1cc(Br)c(-c2[nH]c3cc(OC)c(OC)cc3c(=O)c2O)c(OC)c1 [Compound 27] | ≥ 80 | ≥ 80 | ≥ 80 | ≥ 80 | – | ≤ 19 | C (the percent of inhibition of NOX by the compounds ranges from 2000 to 49%) | – | – | – | – | – | – | –
COc1cc2[nH]c(-c3ccc(C)cc3)c(O)c(=O)c2cc1OC [Compound 6] | ≥ 80 | ≥ 80 | 50 to 79 | ≤ 19 | – | ≤ 19 | C (the percent of inhibition of NOX by the compounds ranges from 2000 to 49%) | – | – | – | – | – | – | –
COc1cc2[nH]c(-c3ccc(C(F)(F)F)cc3)c(O)c(=O)c2cc1OC [Compound 12] | ≤ 19 | ≥ 80 | ≥ 80 | ≤ 19 | ≤ 19 | ≤ 19 | – | – | – | – | – | – | – | –
COc1cc2c(cc1OC)C(=O)NCC(c1ccccc1Cl)=N2 [Compound 35, 2-(2-chlorophenyl)-7,8-dimethoxy-3,4-dihydro-5H-benzo[e][1,4] diazepin-5-one] | ≤ 19 | ≤ 19 | ≤ 19 | ≤ 19 | ≤ 19 | ≤ 19 | – | – | – | – | – | – | – | –

From patent US11661400B2, “NADPH oxidase inhibitors, pharmaceutical composition comprising the same, and application thereof” (TAIWANJ PHARMACEUTICALS CO., LTD., priority 2018, dated 2023)
